Molecular target: T1, mAChR hM4 (Homo sapiens, UniProt P08173)
T1 construct: expressed in transfected cells; host or cells: CHO-K1 (Chinese hamster ovary) cells
T1 sequence (P08173 1-479): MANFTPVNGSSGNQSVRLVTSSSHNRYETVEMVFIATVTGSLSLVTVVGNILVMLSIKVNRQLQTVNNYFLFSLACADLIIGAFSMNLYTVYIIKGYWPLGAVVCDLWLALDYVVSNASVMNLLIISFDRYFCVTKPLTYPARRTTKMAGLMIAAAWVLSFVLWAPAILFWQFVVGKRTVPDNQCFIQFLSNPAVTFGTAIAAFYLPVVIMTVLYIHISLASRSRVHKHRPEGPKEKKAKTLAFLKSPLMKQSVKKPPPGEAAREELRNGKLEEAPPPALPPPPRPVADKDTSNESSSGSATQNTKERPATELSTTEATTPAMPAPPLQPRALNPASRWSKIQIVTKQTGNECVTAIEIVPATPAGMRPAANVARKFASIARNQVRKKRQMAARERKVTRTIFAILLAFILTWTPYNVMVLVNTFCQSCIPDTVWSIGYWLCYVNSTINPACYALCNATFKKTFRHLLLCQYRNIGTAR
Experiment: mAChR M4 cell-based functional assay (calcium flux, potentiation of EC20 acetylcholine response)
Settings: mAChR hM4 cell-line; for Emax at 30 µM: % ACh maximum at 30 μM; for EC50: >10,000 estimated for low potency compounds lacking a plateau
From the text: In one aspect, the disclosed compounds potentiate the agonist response (e.g., acetylcholine) of mAChR M4. In a further aspect, the disclosed compounds increase mAChR M4 response to non-maximal concentrations of agonist in the presence of compound compared to the response to agonist in the absence of compound. […] For example, activation of mAChR M4 activity can be determined by measurement of calcium flux in response to agonist, e.g. acetylcholine, in cells loaded with a Ca^2+-sensitive fluorescent dye (e.g., Fluo-4). In a further aspect, the calcium flux was measured as an increase in fluorescent static ratio. In a yet further aspect, positive allosteric modulator activity was analyzed as a concentration-dependent increase in the EC20 acetylcholine response (i.e. the response of mAChR M4 at a concentration of acetylcholine that yields 20% of the maximal response).
In one aspect, the disclosed compounds activate mAChR M4 response as an increase in calcium fluorescence in mAChR M4-transfected CHO-K1 cells in the presence of the compound, compared to the response of equivalent CHO-K1 cells in the absence of the compound. […] In a further aspect, the mAChR M4-transfected CHO-K1 cells are transfected with human mAChR M4. In a still further aspect, the mAChR M4-transfected CHO-K1 cells are transfected with rat mAChR M4.
Substituted 3-aminothieno[2,3-c]pyridine-2-carboxamide analogs were synthesized as described above. Activity (EC50 and Emax) was determined in the mAChR M4 cell-based functional assay as described above, and the data are shown in Table II for assays conducted using mAChR hM4 cell-line. The compound number corresponds to the compound numbers used in Table I.

Row | Compound | Emax at 30 µM [%] | EC50 [µM]
1 | Cc1cc(C)c2c(Br)c(C(=O)NC3CCOCC3)sc2n1 [Compound 12, 3-bromo-4,6-dimethyl-N-(tetrahydro-2H-pyran-4-yl)thieno[2,3-b]pyridine-2-carboxamide] |  | > 10
2 | Cc1cc(C)c2c(Br)c(C(=O)NCC3CC3)sc2n1 [Compound 13, 3-bromo-N-(cyclopropylmethyl)-4,6-dimethylthieno[2,3-b]pyridine-2-carboxamide] | 29 | > 10
3 | Cc1cc(C)c2c(Br)c(C(=O)N3CCOCC3)sc2n1 [Compound 14, (3-bromo-4,6-dimethylthieno[2,3-b]pyridin-2-yl)(morpholino)methanone] |  | > 10
4 | Cc1cc(C)c2c(C)c(C(=O)NC3CC3)sc2n1 [Compound 18, N-cyclopropyl-3,4,6-trimethylthieno[2,3-b]pyridine-2-carboxamide] | 73 | > 10
5 | Cc1cc(C)c2c(C)c(C(=O)NCc3ccc(OC(F)(F)F)cc3)sc2n1 [Compound 21, 3,4,6-trimethyl-N-(4-(trifluoro-methoxy)benzyl)thieno[2,3-b]pyridine-2-carboxamide] |  | > 10
6 | Cc1cc(C)c2c(C)c(C(=O)NC3CCOC3)sc2n1 (stereo not drawn) [Compound 22, 3,4,6-trimethyl-N-(tetrahydrofuran-3-yl)thieno[2,3-b]pyridine-2-carboxamide] | 67 | > 10
7 | Cc1cc(C)c2c(C)c(C(=O)N3CCCC(F)(F)C3)sc2n1 [Compound 23, (3,3-difluoropiperidin-1-yl)(3,4,6-trimethylthieno[2,3-b]pyridin-2-yl)methanone] |  | > 10
8 | Cc1cc(C)c2c(C)c(C(=O)N3CCCC3)sc2n1 [Compound 24, pyrrolidin-1-yl(3,4,6-trimethylthieno[2,3-b]pyridin-2-yl)methanone] |  | > 10
9 | Cc1cc(C)c2c(C)c(C(=O)N[C@@H]3CCOC3)sc2n1 [Compound 25, (R)-3,4,6-trimethyl-N-(tetrahydrofuran-3-yl)thieno[2,3-b]pyridine-2-carboxamide] | 60 | > 10
10 | Cc1cc(C)c2c(C)c(C(=O)NC3CCOCC3)sc2n1 [Compound 26, 3,4,6-trimethyl-N-(tetrahydro-2H-pyran-4-yl)thieno[2,3-b]pyridine-2-carboxamide] | 44 | > 10
11 | COc1ccc2c(c1)CCN(C(=O)c1sc3nc(C)cc(C)c3c1C)C2 [Compound 28, (6-methoxy-3,4-dihydroisoquinolin-2(1H)-yl)(3,4,6-trimethylthieno[2,3-b]pyridin-2-yl)methanone] |  | > 10
12 | COc1ccc(C(C)NC(=O)c2sc3nc(C)cc(C)c3c2C)cc1 (stereo not drawn) [Compound 29, N-(1-(4-methoxyphenyl)ethyl)-3,4,6-trimethylthieno[2,3-b]pyridine-2-carboxamide] |  | > 10
13 | Cc1cc(C)c2c(C)c(C(=O)NCCN3CCOCC3)sc2n1 [Compound 30, 3,4,6-trimethyl-N-(2-morpholinoethyl)thieno[2,3-b]pyridine-2-carboxamide] |  | > 10
14 | Cc1cc(C)c2c(Br)c(C(=O)NCc3ccc(S(C)(=O)=O)cc3)sc2n1 [Compound 32, 3-bromo-4,6-dimethyl-N-(4-(methylsulfonyl)benzyl)thieno[2,3-b]pyridine-2-carboxamide] |  | > 10
15 | Cc1cc(C)c2c(C#N)c(C(=O)NCc3ccc(S(C)(=O)=O)cc3)sc2n1 [Compound 33, 3-cyano-4,6-dimethyl-N-(4-(methylsulfonyl)benzyl)thieno[2,3-b]pyridine-2-carboxamide] |  | > 10
16 | Cc1cc(C)c2c(-c3ccccc3)c(C(=O)NCc3ccc(S(C)(=O)=O)cc3)sc2n1 [Compound 34, 4,6-dimethyl-N-(4-(methylsulfonyl)benzyl)-3-phenylthieno[2,3-b]pyridine-2-carboxamide] |  | > 10
17 | Cc1cc(C)c2cc(C(=O)NCc3ccc(S(C)(=O)=O)cc3)sc2n1 [Compound 35, 4,6-dimethyl-N-(4-(methylsulfonyl)benzyl)thieno[2,3-b]pyridine-2-carboxamide] | 41 | > 10
18 | Cc1cc(C)c2c(-c3cnn(C)c3)c(C(=O)NCc3ccc(S(C)(=O)=O)cc3)sc2n1 [Compound 36, 4,6-dimethyl-3-(1-methyl-1H-pyrazol-4-yl)-N-(4-(methylsulfonyl)benzyl)thieno[2,3-b]pyridine-2-carboxamide] |  | > 10
19 | Cc1cc(C)c2c(Br)c(C(=O)N(C)Cc3ccc(S(C)(=O)=O)cc3)sc2n1 [Compound 37, 3-bromo-N,4,6-trimethyl-N-(4-(methylsulfonyl)benzyl)thieno[2,3-b]pyridine-2-carboxamide] |  | > 10

More lines, now with the values ahead:

Row | Emax at 30 µM [%] | EC50 [µM] | Compound
20 | 49 | 4.8 | Cc1cc(C)c2c(Br)c(C(=O)NC3CC3)sc2n1 [Compound 4, 3-bromo-N-cyclopropyl-4,6-dimethylthieno[2,3-b]pyridine-2-carboxamide]
21 |  | > 10 | Cc1cc(C)c2c(Br)c(C(=O)N3Cc4ccccc4C3)sc2n1 [Compound 5, (3-bromo-4,6-dimethylthieno[2,3-b]pyridin-2-yl)(isoindolin-2-yl)methanone]
22 | 41 | > 10 | Cc1cc(C)c2c(Br)c(C(=O)NC3CCC3)sc2n1 [Compound 6, 3-bromo-N-cyclobutyl-4,6-dimethylthieno[2,3-b]pyridine-2-carboxamide]
23 |  | > 10 | Cc1cc(C)c2c(Br)c(C(=O)NC3CCOC3)sc2n1 (stereo not drawn) [Compound 7, 3-bromo-4,6-dimethyl-N-(tetrahydrofuran-3-yl)thieno[2,3-b]pyridine-2-carboxamide]
24 | 59 | 3.7 | Cc1cc(C)c2c(Br)c(C(=O)NC3(C)COC3)sc2n1 [Compound 8, 3-bromo-4,6-dimethyl-N-(3-methyloxetan-3-yl)thieno[2,3-b]pyridine-2-carboxamide]
25 | 33 | 3 | Cc1cc(C)c2c(Br)c(C(=O)NCc3cccnc3)sc2n1 [Compound 9, 3-bromo-4,6-dimethyl-N-(pyridin-3-ylmethyl)thieno[2,3-b]pyridine-2-carboxamide]
26 |  | > 10 | COc1ccc(CNC(=O)c2sc3nc(C)cc(C)c3c2Br)cc1 [Compound 10, 3-bromo-N-(4-methoxybenzyl)-4,6-dimethylthieno[2,3-b]pyridine-2-carboxamide]
27 |  | > 10 | Cc1cc(C)c2c(Br)c(C(=O)NCC(C)C)sc2n1 [Compound 11, 3-bromo-N-isobutyl-4,6-dimethylthieno[2,3-b]pyridine-2-carboxamide]
28 | 55 | 4 | COc1ccc(CNC(=O)c2cc3c(C)cc(C)nc3s2)cc1 [Compound 15, N-(4-methoxybenzyl)-4,6-dimethylthieno[2,3-b]pyridine-2-carboxamide]
29 | 51 | 2.6 | COc1ccc(CNC(=O)c2sc3nc(C)cc(C)c3c2I)cc1 [Compound 16, 3-iodo-N-(4-methoxybenzyl)-4,6-dimethylthieno[2,3-b]pyridine-2-carboxamide]
30 | 53 | 2.4 | COc1ccc(CNC(=O)c2sc3nc(C)cc(C)c3c2C)cc1 [Compound 17, N-(4-methoxybenzyl)-3,4,6-trimethylthieno[2,3-b]pyridine-2-carboxamide]
31 | 62 | 4.2 | Cc1cc(C)c2c(C)c(C(=O)NCc3ccc(S(C)(=O)=O)cc3)sc2n1 [Compound 19, 3,4,6-trimethyl-N-(4-(methylsulfonyl)benzyl)thieno[2,3-b]pyridine-2-carboxamide]
32 | 38 | 2.6 | Cc1cc(C)c2c(C)c(C(=O)NCc3ccc4c(c3)CCO4)sc2n1 [Compound 20, N-((2,3-dihydrobenzofuran-5-yl)methyl)-3,4,6-trimethylthieno[2,3-b]pyridine-2-carboxamide]
33 | 49 | 2.2 | CSc1ccc(CNC(=O)c2sc3nc(C)cc(C)c3c2C)cc1 [Compound 27, 3,4,6-trimethyl-N-(4-(methylthio)benzyl)thieno[2,3-b]pyridine-2-carboxamide]
34 | 57 | 2.2 | Cc1cc(C)c2c(C)c(C(=O)NCc3ccc4c(c3)OCCO4)sc2n1 [Compound 31, N-((2,3-dihydrobenzo[b][1,4]dioxin-6-yl)methyl)-3,4,6-trimethylthieno[2,3-b]pyridine-2-carboxamide]

Reference: patent publication US20160200733A1, “SUBSTITUTED THIENO[2,3-B]PYRIDINE-2-CARBOXAMIDE ANALOGS AS POSITIVE ALLOSTERIC MODULATORS OF THE MUSCARINIC ACETYLCHOLINE RECEPTOR M4” (Vanderbilt University, priority 2013, published 2016)
